Experimental data published in PMC7400437, “Synthesis and Evaluation of the Antibacterial Activities of 13-Substituted Berberine Derivatives” (Antibiotics, 2020).
Where two headings read alike, the source gives them in different places.

Legend:
C. albicans = test: MIC, antifungal activity assay; assay type: cell-based, Candida albicans (DSM 10697); settings: Candida albicans; Table 1 first screening; 35 °C, 24 h; read-out: Minimal Inhibitory Concentration (MIC) C. albicans
B. subtilis = test: MIC, antimicrobial activity assay; assay type: cell-based, Bacillus subtilis (ATCC 6633); settings: Bacillus subtilis
[1] = test system: HepG2 (human liver cells); test: Cytotoxic assay on human cells (resazurin); assay type: cell-based; settings: HepG2, 48 h, read-out: Inhibitory Concentration 50 (IC50) on cell viability, HEPG2
Description: (§1) The toxicity of berberine and berberine’s derivatives on human cells was evaluated using resazurin assay as previously described. Human cells used were BEAS (ATCC CRL-9609), Caco2 (ATCC HTB-37) and HepG2 (ATCC HB-8065) corresponding respectively to human airway epithelial cells, intestinal epithelial cells and liver cells. Cells were cultured in Dulbecco’s modified essential medium (DMEM) supplemented with 10% fetal bovine serum (FBS), 1% L-glutamine and 1% antibiotics (Thermo Fisher Scientific, Illkirch-Graffenstaden, France). Cells were routinely grown on 25 cm^2 flasks and maintained in a 5% CO2 incubator at 37 °C. For toxicity assay, cells were detached using trypsin–EDTA solution (Thermo Fisher Scientific), counted using Mallasez counting chamber and seeded into 96-well cell culture plates (Greiner bio-One, Dominique Dutscher, Brumath, France) at approximately 10,000 cells per well. The cells were left to grow for 48–72 h at 37 °C in a 5% CO2 incubator until they reached confluence. Media from wells was then aspirated and cells were treated with 100 µL of culture media containing increasing concentrations of berberine or berberine’s derivatives obtained by serial dilution (from 0 to 50 µM, 1:2 dilution), DMSO (0.5% DMSO final concentration) was used as negative control. After 48 h incubation at 37 °C in a 5% CO2 incubator, cell viability was evaluated using resazurin based in vitro toxicity assay kit (Sigma-Aldrich) following manufacturer’s instructions. Briefly, cell wells were emptied, and cells were treated with 100 µL of resazurin diluted 1:10 in sterile PBS containing calcium and magnesium (PBS^++, pH 7.4). After 4 h incubation at 37 °C, fluorescence intensity (excitation wavelength of 530 nm/emission wavelength of 590 nm) was measured using Synergy Mx microplate reader (Biotek). The fluorescence values were normalized by the controls (DMSO treated cells) and expressed as percent viability. The IC50 values of berberine and berberine’s derivatives on cell viability (i.e., the concentration of derivative causing a reduction of 50% of the cell viability) were calculated using GraphPad® Prism 7 software (San Diego, CA, USA). t-Test and two ways ANOVA analyses were used to address the significant differences between mean values with significance set at p < 0.05.

[2] = test system: Caco2 (human intestinal epithelial cells); test: Cytotoxic assay on human cells (resazurin); assay type: cell-based; settings: for IC50: Homo sapiens, Caco-2, 48 h, read-out: Inhibitory Concentration 50 (IC50) on cell viability, Caco2
Description: as §1

[3] = test system: BEAS (human airway epithelial cells); test: Cytotoxic assay on human cells (resazurin); assay type: cell-based; settings: Epithelial cell, 48 h, means +/−SD, read-out: Inhibitory Concentration 50 (IC50) on cell viability, BEAS
Description: as §1

S. aureus = test: MIC, antimicrobial activity assay; assay type: cell-based, Staphylococcus aureus (ATCC 6538P); settings: Staphylococcus aureus
[4] = test system: selected relevant microorganisms; test: Antimicrobial activity, overall statement (active/inactive); assay type: cell-based
P. aeruginosa = test: MIC, antimicrobial activity assay; assay type: cell-based, Pseudomonas aeruginosa (ATCC 9027); settings: Pseudomonas aeruginosa
E. coli = test: MIC, antimicrobial activity assay; assay type: cell-based, Escherichia coli (ATCC 8739); settings: Escherichia coli
M. smegmatis = test: microbe, parasite or virus in culture; assay type: cell-based, Mycobacterium smegmatis (mc2155, ATCC 700084); settings: Mycolicibacterium smegmatis, 72 h, read-out: Minimal Inhibitory Concentration (MIC) M. smegmatis
[5] = test system: bacterial membrane integrity; test: Bacterial membrane permeabilization assay (propidium iodide), strain not specified; assay type: cell-based; settings: data not shown
Description: Membrane permeabilization by berberine derivatives was evaluated using the cell-impermeable DNA/RNA probe propidium iodide as previously explained. Logarithmic growing bacterial suspensions were prepared from overnight bacterial suspension by 1 in 10 dilution. After 3 h incubation at 37 °C, 200 rpm, bacterial suspensions were centrifuged for 5 min at 3000 rpm. Cell pellets were then resuspended in sterile PBS at about 10^9 cells/mL. Propidium iodide (Sigma Aldrich) was then added to the suspension at a final concentration of 60 µM. 100 µL of this suspension were then transferred into 96-well black plates (Dominique Dutscher) and exposed to increasing concentrations of berberine’s derivative (from 0 to 100 µM, 1:2 dilution). […] All steps of the assay were performed in aerobic condition except for H. pylori which was done in microaerobic condition generated with GasPak unit (Sigma Aldrich). Bacteria were incubated at 37 °C and the kinetics of fluorescence variations (excitation at 530 nm and emission at 590 nm) were then recorded over time using a Synergy Mx microplate reader (Biotek). Cetyl trimethylammonium bromide (CTAB) at 300 µM was used as positive control giving 100% permeabilization. Results were expressed in % of permeabilization. All experiments were done in triplicate.

C. perfringens = test: microbe, parasite or virus in culture; assay type: cell-based, Clostridium perfringens (ATCC 13124); settings: Clostridium perfringens, read-out: MIC C. perfringens
S. flexneri = test: MIC, antimicrobial activity assay; assay type: cell-based, Shigella flexneri (ATCC 12022); settings: Shigella flexneri; Table 4, Gram-negative
C. farmer = test: MIC, antimicrobial activity assay; assay type: cell-based, Citrobacter farmeri (ATCC 51633); settings: Citrobacter farmeri; Table 4, Gram-negative
[6] = test system: E. faecalis (Vancomycin-resistant); test: MIC, antimicrobial activity assay; assay type: cell-based, vancomycin-resistant Enterococcus faecalis (DSMZ 13591); settings: Enterococcus faecalis, read-out: MIC E. faecalis (Vancomycin-resistant)
C. rodentium = test: MIC, antimicrobial activity assay; assay type: cell-based, Citrobacter rodentium (ATCC 51116); settings: Citrobacter rodentium; Table 4, Gram-negative
[7] = test system: P. aeruginosa (Quinolone-resistant); test: MIC, antimicrobial activity assay; assay type: cell-based; settings: Pseudomonas aeruginosa, read-out: MIC P. aeruginosa (Quinolone-resistant)
B. cereus = test: MIC, antimicrobial activity assay; assay type: cell-based; settings: Bacillus cereus; Table 4, Gram-positive
A. gandavensis = test: MIC, antimicrobial activity assay; assay type: cell-based, Arthrobacter gandavensis (DSM 2447); settings: Arthrobacter gandavensis; Table 4, Gram-positive
A. baumannii = test: MIC, antimicrobial activity assay; assay type: cell-based, Acinetobacter baumannii (CIP 110431); settings: Acinetobacter baumannii; Table 4, Gram-negative
C. difficile = test: MIC, antimicrobial activity assay; assay type: cell-based, Clostridium difficile (DSM 1296); settings: Clostridioides difficile; Table 4, Gram-positive; anaerobic
H. pylori = test: MIC, antimicrobial activity assay; assay type: cell-based, Helicobacter pylori (ATCC 43504); settings: Helicobacter pylori; Table 4, Gram-negative; microaerobic
[8] = test system: S.aureus (Methicillin-resistant); test: MIC, antimicrobial activity assay; assay type: cell-based; settings: Staphylococcus aureus, read-out: MIC S.aureus (Methicillin-resistant)
V. alginolyticus = test: MIC, antimicrobial activity assay; assay type: cell-based, Vibrio alginolyticus (DSM 2171); settings: Vibrio alginolyticus; Table 4, Gram-negative
K. pneumonia = test: MIC, antimicrobial activity assay; assay type: cell-based, Klebsiella pneumoniae (DSMZ 26371); settings: Klebsiella pneumoniae; Table 4, Gram-negative
L. lactis = test: MIC, antimicrobial activity assay; assay type: cell-based, Lactococcus lactis (DSM 20481); settings: Lactococcus lactis; Table 4, Gram-positive
V. diabolicus = test: MIC, antimicrobial activity assay; assay type: cell-based; settings: Vibrio diabolicus; Table 4, Gram-negative
[9] = test system: B. subtilis (Nisin-resistant); test: MIC, antimicrobial activity assay; assay type: cell-based, nisin-resistant B. subtilis (DSMZ 347); settings: Bacillus subtilis, read-out: MIC B. subtilis (Nisin-resistant)
S. pyogenes = test: MIC, antimicrobial activity assay; assay type: cell-based, Streptococcus pyogenes (DSM 20565); settings: Streptococcus pyogenes; Table 4, Gram-positive; anaerobic
S. enterica = test: MIC, antimicrobial activity assay; assay type: cell-based, Salmonella enterica (CIP 80.39); settings: Salmonella enterica; Table 4, Gram-negative
[10] = Table 1 first screening, read-out: Minimal Inhibitory Concentration (MIC) B. subtilis
[11] = Table 1 first screening, read-out: Minimal Inhibitory Concentration (MIC) S. aureus
[12] = Table 1 first screening, read-out: Minimal Inhibitory Concentration (MIC) P. aeruginosa
[13] = Table 1 first screening, read-out: Minimal Inhibitory Concentration (MIC) E. coli

COc1ccc2cc3[n+](cc2c1OC)CCc1cc2c(cc1-3)OCO2 [Berberine]
MIC (C. albicans): 100 µM | MIC (B. subtilis; [10]): > 100 µM | IC50 [1]: > 50 µM | IC50 [2]: 21.6 ± 2.7 µM | IC50 [3]: 40.5 ± 5.4 µM | MIC (S. aureus; [11]): > 100 µM | antimicrobial activity (active/inactive) [4]: low to no antimicrobial activity | MIC (P. aeruginosa; [12]): > 100 µM | MIC (E. coli; [13]): > 100 µM | MIC (M. smegmatis): 100 µM

CCOC(=O)Cc1c2[n+](cc3c(OC)c(OC)ccc13)CCc1cc3c(cc1-2)OCO3 [Compound 4, 13-(Acetic Acid Ethylester) Berberine]
MIC (C. albicans): > 100 µM | MIC (B. subtilis; [10]): > 100 µM | melting point: 216 °C | MIC (S. aureus; [11]): > 100 µM | MIC (P. aeruginosa; [12]): > 100 µM | MIC (E. coli; [13]): > 100 µM | MIC (M. smegmatis): 100 µM

COc1ccc2c(Cc3ccc(F)cc3)c3[n+](cc2c1OC)CCc1cc2c(cc1-3)OCO2 [Compound 6, 13-(4-Fluorobenzyl)Berberine]
MIC (C. albicans): > 100 µM | MIC (B. subtilis; [10]): 50 µM | melting point: 238 °C | IC50 [1]: > 50 µM | IC50 [2]: 36.9 ± 4.3 µM | IC50 [3]: > 50 µM | MIC (S. aureus; [11]): 12.5 to 25 µM | MIC (P. aeruginosa; [12]): > 100 µM | MIC (E. coli; [13]): > 100 µM | MIC (M. smegmatis): 25 µM

COc1cc(Cc2c3[n+](cc4c(OC)c(OC)ccc24)CCc2cc4c(cc2-3)OCO4)cc(OC)c1OC [Compound 15, 13[(3,4,5-Trimethoxyphenyl)methyl]Berberine]
MIC (C. albicans): > 100 µM | MIC (B. subtilis; [10]): > 100 µM | membrane permeabilization (inactive derivatives) [5]: low to no membrane permeabilization | MIC (S. aureus; [11]): 100 µM | antimicrobial activity (active/inactive) [4]: No Activity | MIC (P. aeruginosa; [12]): > 100 µM | MIC (E. coli; [13]): > 100 µM | MIC (M. smegmatis): 50 µM

COc1ccc2c(Cc3ccc(/C=C/C(=O)c4cc(NC(C)=O)ccc4O)cc3)c3[n+](cc2c1OC)CCc1cc2c(cc1-3)OCO2 [Compound 24, N-{3-[(2E)-3-{4-[(Berberin-13-yl)methyl]phenyl}prop-2-enoyl]-4-hydroxyphenyl}acetamide]
MIC (C. albicans): > 100 µM | MIC (B. subtilis; [10]): 100 µM | membrane permeabilization (inactive derivatives) [5]: low to no membrane permeabilization | MIC (S. aureus; [11]): 50 to 100 µM | antimicrobial activity (active/inactive) [4]: No Activity | MIC (P. aeruginosa; [12]): > 100 µM | MIC (E. coli; [13]): > 100 µM | MIC (M. smegmatis): 25 µM

COc1ccc2c(=O)cc(-c3ccc(Cc4c5[n+](cc6c(OC)c(OC)ccc46)CCc4cc6c(cc4-5)OCO6)cc3)oc2c1 [Compound 26, 2-{4-[(Berberin-13-yl)methyl]phenyl}-7-methoxy-4H-chromen-4-one]
MIC (C. perfringens): > 100 µM | MIC (S. flexneri): > 100 µM | MIC (C. albicans): 100 µM | MIC (B. subtilis; [10]): 50 µM | MIC (B. subtilis; Table 4, Gram-positive, read-out: MIC B. subtilis): 50 µM | MIC (C. farmer): > 100 µM | MIC [6]: > 100 µM | MIC (C. rodentium): > 100 µM | MIC [7]: > 100 µM | MIC (B. cereus): 50 µM | IC50 [1]: > 50 µM | IC50 [2]: > 50 µM | therapeutic index Caco2 ([2]; IC50 on Caco2 divided by MIC on S. aureus): 20.24 | IC50 [3]: > 50 µM | MIC (A. gandavensis): 12.5 µM | MIC (S. aureus; [11]): 12.5 µM | MIC (S. aureus; Table 4, Gram-positive, read-out: MIC S. aureus): 12.5 µM | MIC (A. baumannii): > 100 µM | MIC (C. difficile): > 100 µM | MIC (H. pylori): 50 µM | MIC [8]: 25 µM | MIC (V. alginolyticus): 50 µM | MIC (K. pneumonia): > 100 µM | MIC (L. lactis): 6.25 to 12.5 µM | MIC (V. diabolicus): > 100 µM | MIC (P. aeruginosa; [12]): > 100 µM | MIC (P. aeruginosa; Table 4, Gram-negative, read-out: MIC P. aeruginosa): > 100 µM | MIC [9]: 50 µM | MIC (E. coli; [13]): > 100 µM | MIC (E. coli; Table 4, Gram-negative, read-out: MIC E. coli): > 100 µM | MIC (S. pyogenes): 25 µM | MIC (M. smegmatis): 50 µM | MIC (S. enterica): > 100 µM
